In the OligoGym collection:
Oligonucleotides are given in HELM: sugar(base)linkage, 5' to 3'; d 2'-deoxyribose, r ribose, m 2'-O-methylribose, p phosphate. ss, as = sense and antisense strand

The substances below were run against Mmp7 (rat) (assay: reporter assay of Huesken 2005). Details: siRNA.
Further: test concentration or dose not given here.

Substance	normalised inhibition (eCFP-eYFP dual reporter) [%]
RNA1{r(A)p.r(G)p.r(A)p.r(A)p.r(G)p.r(U)p.r(G)p.r(A)p.r(C)p.r(C)p.r(G)p.r(C)p.r(A)p.r(C)p.r(U)p.r(U)p.r(C)p.r(A)p.r(G)p.d(T)p.d(T)}|RNA2{r(C)p.r(U)p.r(G)p.r(A)p.r(A)p.r(G)p.r(U)p.r(G)p.r(C)p.r(G)p.r(G)p.r(U)p.r(C)p.r(A)p.r(C)p.r(U)p.r(U)p.r(C)p.r(U)p.d(C)p.d(C)}$$$RNA1{StrandType:ss}|RNA2{StrandType:as}$	32.9
RNA1{r(A)p.r(G)p.r(A)p.r(A)p.r(U)p.r(U)p.r(C)p.r(U)p.r(C)p.r(A)p.r(C)p.r(U)p.r(A)p.r(A)p.r(U)p.r(G)p.r(C)p.r(C)p.r(A)p.d(T)p.d(T)}|RNA2{r(U)p.r(G)p.r(G)p.r(C)p.r(A)p.r(U)p.r(U)p.r(A)p.r(G)p.r(U)p.r(G)p.r(A)p.r(G)p.r(A)p.r(A)p.r(U)p.r(U)p.r(C)p.r(U)p.d(G)p.d(C)}$$$RNA1{StrandType:ss}|RNA2{StrandType:as}$	107
RNA1{r(A)p.r(G)p.r(A)p.r(C)p.r(A)p.r(U)p.r(C)p.r(A)p.r(U)p.r(A)p.r(A)p.r(U)p.r(U)p.r(G)p.r(G)p.r(C)p.r(U)p.r(U)p.r(C)p.d(T)p.d(T)}|RNA2{r(G)p.r(A)p.r(A)p.r(G)p.r(C)p.r(C)p.r(A)p.r(A)p.r(U)p.r(U)p.r(A)p.r(U)p.r(G)p.r(A)p.r(U)p.r(G)p.r(U)p.r(C)p.r(U)p.d(G)p.d(C)}$$$RNA1{StrandType:ss}|RNA2{StrandType:as}$	99.4
RNA1{r(A)p.r(G)p.r(G)p.r(C)p.r(C)p.r(U)p.r(C)p.r(G)p.r(G)p.r(C)p.r(G)p.r(G)p.r(A)p.r(G)p.r(A)p.r(U)p.r(G)p.r(C)p.r(U)p.d(T)p.d(T)}|RNA2{r(A)p.r(G)p.r(C)p.r(A)p.r(U)p.r(C)p.r(U)p.r(C)p.r(C)p.r(G)p.r(C)p.r(C)p.r(G)p.r(A)p.r(G)p.r(G)p.r(C)p.r(C)p.r(U)p.d(G)p.d(G)}$$$RNA1{StrandType:ss}|RNA2{StrandType:as}$	68.5
RNA1{r(A)p.r(G)p.r(G)p.r(C)p.r(G)p.r(C)p.r(A)p.r(G)p.r(A)p.r(A)p.r(U)p.r(U)p.r(A)p.r(U)p.r(C)p.r(U)p.r(U)p.r(A)p.r(G)p.d(T)p.d(T)}|RNA2{r(C)p.r(U)p.r(A)p.r(A)p.r(G)p.r(A)p.r(U)p.r(A)p.r(A)p.r(U)p.r(U)p.r(C)p.r(U)p.r(G)p.r(C)p.r(G)p.r(C)p.r(C)p.r(U)p.d(G)p.d(T)}$$$RNA1{StrandType:ss}|RNA2{StrandType:as}$	66
RNA1{r(A)p.r(G)p.r(G)p.r(C)p.r(G)p.r(U)p.r(G)p.r(A)p.r(A)p.r(C)p.r(U)p.r(U)p.r(C)p.r(C)p.r(U)p.r(G)p.r(U)p.r(U)p.r(U)p.d(T)p.d(T)}|RNA2{r(A)p.r(A)p.r(A)p.r(C)p.r(A)p.r(G)p.r(G)p.r(A)p.r(A)p.r(G)p.r(U)p.r(U)p.r(C)p.r(A)p.r(C)p.r(G)p.r(C)p.r(C)p.r(U)p.d(G)p.d(A)}$$$RNA1{StrandType:ss}|RNA2{StrandType:as}$	91.1
RNA1{r(A)p.r(G)p.r(G)p.r(G)p.r(G)p.r(A)p.r(G)p.r(A)p.r(U)p.r(C)p.r(A)p.r(C)p.r(G)p.r(G)p.r(A)p.r(G)p.r(A)p.r(C)p.r(A)p.d(T)p.d(T)}|RNA2{r(U)p.r(G)p.r(U)p.r(C)p.r(U)p.r(C)p.r(C)p.r(G)p.r(U)p.r(G)p.r(A)p.r(U)p.r(C)p.r(U)p.r(C)p.r(C)p.r(C)p.r(C)p.r(U)p.d(T)p.d(G)}$$$RNA1{StrandType:ss}|RNA2{StrandType:as}$	102
RNA1{r(A)p.r(G)p.r(U)p.r(A)p.r(C)p.r(U)p.r(G)p.r(G)p.r(A)p.r(C)p.r(G)p.r(G)p.r(A)p.r(U)p.r(G)p.r(G)p.r(U)p.r(G)p.r(A)p.d(T)p.d(T)}|RNA2{r(U)p.r(C)p.r(A)p.r(C)p.r(C)p.r(A)p.r(U)p.r(C)p.r(C)p.r(G)p.r(U)p.r(C)p.r(C)p.r(A)p.r(G)p.r(U)p.r(A)p.r(C)p.r(U)p.d(C)p.d(A)}$$$RNA1{StrandType:ss}|RNA2{StrandType:as}$	90.5
RNA1{r(A)p.r(G)p.r(U)p.r(C)p.r(U)p.r(U)p.r(A)p.r(C)p.r(A)p.r(A)p.r(A)p.r(G)p.r(G)p.r(A)p.r(C)p.r(G)p.r(A)p.r(C)p.r(A)p.d(T)p.d(T)}|RNA2{r(U)p.r(G)p.r(U)p.r(C)p.r(G)p.r(U)p.r(C)p.r(C)p.r(U)p.r(U)p.r(U)p.r(G)p.r(U)p.r(A)p.r(A)p.r(G)p.r(A)p.r(C)p.r(U)p.d(G)p.d(A)}$$$RNA1{StrandType:ss}|RNA2{StrandType:as}$	98.7
RNA1{r(A)p.r(G)p.r(U)p.r(G)p.r(C)p.r(A)p.r(G)p.r(U)p.r(G)p.r(G)p.r(A)p.r(C)p.r(A)p.r(A)p.r(A)p.r(C)p.r(U)p.r(G)p.r(A)p.d(T)p.d(T)}|RNA2{r(U)p.r(C)p.r(A)p.r(G)p.r(U)p.r(U)p.r(U)p.r(G)p.r(U)p.r(C)p.r(C)p.r(A)p.r(C)p.r(U)p.r(G)p.r(C)p.r(A)p.r(C)p.r(U)p.d(G)p.d(G)}$$$RNA1{StrandType:ss}|RNA2{StrandType:as}$	110
RNA1{r(A)p.r(G)p.r(U)p.r(G)p.r(C)p.r(C)p.r(A)p.r(G)p.r(A)p.r(U)p.r(G)p.r(U)p.r(U)p.r(G)p.r(C)p.r(A)p.r(G)p.r(A)p.r(A)p.d(T)p.d(T)}|RNA2{r(U)p.r(U)p.r(C)p.r(U)p.r(G)p.r(C)p.r(A)p.r(A)p.r(C)p.r(A)p.r(U)p.r(C)p.r(U)p.r(G)p.r(G)p.r(C)p.r(A)p.r(C)p.r(U)p.d(C)p.d(C)}$$$RNA1{StrandType:ss}|RNA2{StrandType:as}$	115
RNA1{r(A)p.r(G)p.r(U)p.r(U)p.r(C)p.r(U)p.r(G)p.r(U)p.r(G)p.r(A)p.r(U)p.r(G)p.r(U)p.r(A)p.r(C)p.r(C)p.r(C)p.r(U)p.r(A)p.d(T)p.d(T)}|RNA2{r(U)p.r(A)p.r(G)p.r(G)p.r(G)p.r(U)p.r(A)p.r(C)p.r(A)p.r(U)p.r(C)p.r(A)p.r(C)p.r(A)p.r(G)p.r(A)p.r(A)p.r(C)p.r(U)p.d(G)p.d(G)}$$$RNA1{StrandType:ss}|RNA2{StrandType:as}$	116
RNA1{r(A)p.r(G)p.r(U)p.r(U)p.r(C)p.r(U)p.r(U)p.r(C)p.r(G)p.r(G)p.r(U)p.r(U)p.r(U)p.r(G)p.r(C)p.r(C)p.r(G)p.r(G)p.r(A)p.d(T)p.d(T)}|RNA2{r(U)p.r(C)p.r(C)p.r(G)p.r(G)p.r(C)p.r(A)p.r(A)p.r(A)p.r(C)p.r(C)p.r(G)p.r(A)p.r(A)p.r(G)p.r(A)p.r(A)p.r(C)p.r(U)p.d(T)p.d(C)}$$$RNA1{StrandType:ss}|RNA2{StrandType:as}$	53.8
RNA1{r(A)p.r(U)p.r(C)p.r(U)p.r(U)p.r(A)p.r(G)p.r(G)p.r(A)p.r(A)p.r(A)p.r(U)p.r(U)p.r(U)p.r(U)p.r(A)p.r(C)p.r(C)p.r(U)p.d(T)p.d(T)}|RNA2{r(A)p.r(G)p.r(G)p.r(U)p.r(A)p.r(A)p.r(A)p.r(A)p.r(U)p.r(U)p.r(U)p.r(C)p.r(C)p.r(U)p.r(A)p.r(A)p.r(G)p.r(A)p.r(U)p.d(A)p.d(A)}$$$RNA1{StrandType:ss}|RNA2{StrandType:as}$	79.6
RNA1{r(A)p.r(U)p.r(G)p.r(A)p.r(G)p.r(U)p.r(A)p.r(C)p.r(U)p.r(G)p.r(G)p.r(A)p.r(C)p.r(G)p.r(G)p.r(A)p.r(U)p.r(G)p.r(G)p.d(T)p.d(T)}|RNA2{r(C)p.r(C)p.r(A)p.r(U)p.r(C)p.r(C)p.r(G)p.r(U)p.r(C)p.r(C)p.r(A)p.r(G)p.r(U)p.r(A)p.r(C)p.r(U)p.r(C)p.r(A)p.r(U)p.d(C)p.d(C)}$$$RNA1{StrandType:ss}|RNA2{StrandType:as}$	41.9
RNA1{r(A)p.r(U)p.r(G)p.r(G)p.r(U)p.r(G)p.r(A)p.r(G)p.r(G)p.r(A)p.r(C)p.r(U)p.r(C)p.r(A)p.r(G)p.r(G)p.r(C)p.r(G)p.r(U)p.d(T)p.d(T)}|RNA2{r(A)p.r(C)p.r(G)p.r(C)p.r(C)p.r(U)p.r(G)p.r(A)p.r(G)p.r(U)p.r(C)p.r(C)p.r(U)p.r(C)p.r(A)p.r(C)p.r(C)p.r(A)p.r(U)p.d(C)p.d(C)}$$$RNA1{StrandType:ss}|RNA2{StrandType:as}$	65.7
RNA1{r(A)p.r(U)p.r(G)p.r(U)p.r(U)p.r(G)p.r(C)p.r(A)p.r(G)p.r(A)p.r(A)p.r(U)p.r(U)p.r(C)p.r(U)p.r(C)p.r(A)p.r(C)p.r(U)p.d(T)p.d(T)}|RNA2{r(A)p.r(G)p.r(U)p.r(G)p.r(A)p.r(G)p.r(A)p.r(A)p.r(U)p.r(U)p.r(C)p.r(U)p.r(G)p.r(C)p.r(A)p.r(A)p.r(C)p.r(A)p.r(U)p.d(C)p.d(T)}$$$RNA1{StrandType:ss}|RNA2{StrandType:as}$	80.2
RNA1{r(A)p.r(U)p.r(U)p.r(U)p.r(G)p.r(A)p.r(U)p.r(G)p.r(G)p.r(G)p.r(C)p.r(C)p.r(A)p.r(G)p.r(G)p.r(A)p.r(A)p.r(A)p.r(C)p.d(T)p.d(T)}|RNA2{r(G)p.r(U)p.r(U)p.r(U)p.r(C)p.r(C)p.r(U)p.r(G)p.r(G)p.r(C)p.r(C)p.r(C)p.r(A)p.r(U)p.r(C)p.r(A)p.r(A)p.r(A)p.r(U)p.d(G)p.d(G)}$$$RNA1{StrandType:ss}|RNA2{StrandType:as}$	10.5
RNA1{r(C)p.r(A)p.r(A)p.r(A)p.r(C)p.r(A)p.r(G)p.r(U)p.r(C)p.r(C)p.r(U)p.r(A)p.r(A)p.r(G)p.r(U)p.r(G)p.r(G)p.r(C)p.r(A)p.d(T)p.d(T)}|RNA2{r(U)p.r(G)p.r(C)p.r(C)p.r(A)p.r(C)p.r(U)p.r(U)p.r(A)p.r(G)p.r(G)p.r(A)p.r(C)p.r(U)p.r(G)p.r(U)p.r(U)p.r(U)p.r(G)p.d(G)p.d(C)}$$$RNA1{StrandType:ss}|RNA2{StrandType:as}$	81.2
RNA1{r(C)p.r(A)p.r(A)p.r(A)p.r(G)p.r(A)p.r(A)p.r(G)p.r(G)p.r(C)p.r(C)p.r(A)p.r(C)p.r(C)p.r(A)p.r(G)p.r(U)p.r(G)p.r(C)p.d(T)p.d(T)}|RNA2{r(G)p.r(C)p.r(A)p.r(C)p.r(U)p.r(G)p.r(G)p.r(U)p.r(G)p.r(G)p.r(C)p.r(C)p.r(U)p.r(U)p.r(C)p.r(U)p.r(U)p.r(U)p.r(G)p.d(T)p.d(T)}$$$RNA1{StrandType:ss}|RNA2{StrandType:as}$	38.2
